Test results as given in patent US8614251B2, “Crystalline form VI of agomelatine, preparation method and application thereof” (Les Laboratories Servier, priority 2009, dated 2013).
Values after ≈ are worked out from the molar mass of the structure shown.

What was measured:
[1] = Stability of crystalline forms on storage at 40° C. for 20 days, purity by HPLC; type: physicochemical; settings: for Purity after storage in the thermostatically controlled containers for 20 days / Purity before storage: HPLC
Experimental: Crystalline forms II, III, IV and VI are respectively placed in a thermostatically controlled container at 40° C. for 20 days. The stability of the said crystalline forms is assessed by high performance liquid chromatography.
Chromatographic conditions: octadecylsilane bonded silica as filler; a mixed solution of 10 mM/L phosphate buffer (adjusted to pH 7.0 by sodium hydroxide) and acetonitrile in 2:7 by volume as mobile phase; column temperature 40° C.; detection wavelength 220 nm. The purity is determined using an internal standard method.
The crystalline forms II, III, IV and VI were formulated with the mobile phase as 1 mg/mL solution. 10 μL of each of the solution was removed and injected into the liquid chromatograph. The chromatograms were recorded.
The assay was carried out using an external standard method as described under Purity Measurement of the Sample.

[2] = Solubility measurement in water by HPLC, external standard method; type: physicochemical
Experimental: 3. Solubility Measurement in Water
The measurement was carried out by HPLC using an external standard method.

Purity after storage in the thermostatically controlled containers for 20 days ([1]; 40° C., 20 days) [%] | Purity before storage [1] [%] | Solubility compared with the existing crystalline forms [2] | solubility ([2]; HPLC) [µg/mL] | Stability compared with the existing crystalline forms ([1]; 40° C., 20 days) | Compound
99.24 | 99.79 |  |  |  | COc1ccc2cccc(CCNC(C)=O)c2c1 [crystalline form II, N-[2-(7-methoxy-1-naphthyl)ethyl]acetamide]
99.10 | 99.77 |  |  |  | COc1ccc2cccc(CCNC(C)=O)c2c1 [crystalline form III, N-[2-(7-methoxy-1-naphthyl)ethyl]acetamide]
99.54 | 99.82 |  |  |  | COc1ccc2cccc(CCNC(C)=O)c2c1 [crystalline form IV, N-[2-(7-methoxy-1-naphthyl)ethyl]acetamide]
99.55 | 99.60 | superior | 1240 (≈ 5.1 mM) | superior | COc1ccc2cccc(CCNC(C)=O)c2c1 [crystalline form VI, N-[2-(7-methoxy-1-naphthyl)ethyl]acetamide]
